# Source: US20120101163A1, “COMPOSITION FOR INHIBITING CANCER METASTASIS” (TAIPEI MEDICAL UNIVERSITY, priority 2010, published 2012)
# Columns and labels:
# [1] = test system: HT 1080 cells; assay: Cancer cell survival rate test (MTT); format: cell-based, Human; details: different concentrations, 24 hours
# Description: 3. Cancer Cell Survival Rate Test (Lambert et al., 1997; Yang et al., 2006)
# A medium in a culturing plate containing cells grown covering the whole bottom of the culturing plate, was removed. The cells were washed with 10 ml of PBS, and then suspended and mixed well with 10 ml of medium (a part of the cells need to be suspended with Trypsin-EDTA buffer). The numbers of the cells were calculated by a hemocytometer, and the cells were diluted to an appropriate cell concentration and added into the wells of a 24 well culturing plate by an amount of 500 μl/well. The 24 well culturing plates were placed in an incubator at 37° C. in a humidified atmosphere containing 5% CO2. After the cells were attached onto the bottom of the wells, the medium in each well was removed, and fresh mediums with different concentrations of a test drug were added into wells, respectively (if the cells were suspension cells, the fresh medium may be added into the wells, directly). Then, the 24 well culturing plates were placed in an incubator at 37° C. in a humidified atmosphere containing 5% CO2 for 24 hours. After that, an upper medium in each well was removed. The cells were washed with a PBS buffer twice, and then an MTT solution which was prepared with a medium was added to each well. […] After that, an ELISA reader was used to determine the absorbance for each well at 600 nm.
# [2] = test system: matrix metalloproteinase-2; assay: Gelatin gel zymography of PMA-induced HT 1080 cells, MMP-2 activity; format: cell-based, Human
# Description: (§1) 4. Gelatin Gel Zymography (Shim et al., 2003; Park et al., 2005; Hwang et al., 2006)
# (§2) HT 1080 cells with appropriate cell numbers were cultured in 60 mm culturing plates for 12 hours, respectively. After the cells were attached onto the bottom of the plate and formed a monolayer, the medium in the plate was removed. Fresh serum free mediums with different concentrations of a test sample were added to the plates, respectively, and 100 nM PMA was added to each plate to induce the cells to express great quantities of matrix metalloproteinase-2 and matrix metalloproteinase-9, and the plates were placed in a temperature of 37° C. for 24 hours. After centrifugation, each cultured supernatant were saved and mixed with SDS-sample buffer under the same protein contents which were then injected into a 10% SDS-polyacrylamide gel (containing 1 mg/ml gelatin) and then electrophoresed. After the electrophoresis was completed, the gel was taken out and washed with 20 mM Tris-HCl containing 25% isopropanol three times; 10 minutes per time. Then the gel was equilibrated with 20 mM Tris-HCl for 30 minutes, and finally an incubate buffer (5 mM CaCl2 and 1 mM ZnCl2) was added to the gel and reacted with the gel overnight. Then the gel was stained with coomassie blue, and positions having matrix metalloproteinase activity of the gel presented a white color.
# [3] = test system: matrix metalloproteinase-9; assay: Gelatin gel zymography of PMA-induced HT 1080 cells, MMP-9 activity; format: cell-based, Human
# Description: as §1, §2
# [4] = target: T1, matrix metalloproteinase-9 (Homo sapiens, UniProt P14780); assay: Extracellular inhibition test on enzyme activity of secreted MMP-9 in cultured medium; format: biochemical; details: cultured medium of PMA induced HT 1080, different concentrations, 24 hours
# T1 construct: matrix metalloproteinase-2 and matrix metalloproteinase-9 were secreted from the PMA induced HT 1080; endogenous in cells; host or cells: HT 1080 cells induced with 100 nM PMA
# T1 sequence (P14780 94-707): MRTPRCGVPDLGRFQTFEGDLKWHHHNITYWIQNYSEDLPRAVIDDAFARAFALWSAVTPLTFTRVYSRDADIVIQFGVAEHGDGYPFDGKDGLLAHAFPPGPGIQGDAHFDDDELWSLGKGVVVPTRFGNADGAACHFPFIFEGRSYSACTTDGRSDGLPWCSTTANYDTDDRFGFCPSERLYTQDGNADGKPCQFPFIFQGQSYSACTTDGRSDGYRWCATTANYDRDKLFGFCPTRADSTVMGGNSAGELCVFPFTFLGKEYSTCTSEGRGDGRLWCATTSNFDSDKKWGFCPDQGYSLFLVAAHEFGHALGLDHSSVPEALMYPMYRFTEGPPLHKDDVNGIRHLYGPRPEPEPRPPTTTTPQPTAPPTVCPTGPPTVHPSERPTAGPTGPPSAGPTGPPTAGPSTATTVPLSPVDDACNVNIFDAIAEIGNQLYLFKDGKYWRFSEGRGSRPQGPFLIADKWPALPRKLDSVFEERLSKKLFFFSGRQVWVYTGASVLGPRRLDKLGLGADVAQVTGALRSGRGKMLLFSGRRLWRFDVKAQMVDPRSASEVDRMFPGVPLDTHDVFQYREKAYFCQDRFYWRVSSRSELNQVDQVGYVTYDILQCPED
# Description: as §2, with “Then the gel was equilibrated with 20 mM Tris-HCl for 30 minutes, and finally an incubate buffer (5 mM CaCl2 and 1 mM ZnCl2) was added to the gel and reacted with the gel overnight. Then the gel was stained with coomassie blue, and positions having matrix metalloproteinase activity of the gel presented a white color.” left out
# HT 1080 cells were induced with PMA, and the cultured medium for culturing the HT 1080 cells therefrom was taken out and treated with the different concentrations of L-Glutamic acid γ-hydroxamate (DH) for 24 hours, respectively. After that the enzyme activities of the matrix metalloproteinase-2 and matrix metalloproteinase-9 in the medium were analyzed. […]
# [5] = test system: matrix metalloproteinase-2; assay: RT-PCR, MMP-2 gene expression in HT 1080 cells; format: cell-based, Human
# Description: 7. RNA Extraction and Reverse Transcription-Polymerase Chain Reaction (RT-PCR)
# HT 1080 cells with appropriate cell numbers were cultured in 60 mm culturing plates for 6 hours, respectively. After the cells were attached onto the bottom of the plate and formed a monolayer, the medium in the plate was removed. Fresh serum free mediums with different concentrations of a test sample were added to the plates, respectively, and 100 nM PMA was added to each plate to induce the cells to express great quantities of matrix metalloproteinase-2 and matrix metalloproteinase-9, and the plates were placed in a temperature of 37° C. for 6 hours. After that, the total RNA of the cells were extracted with the TRIzol reagent and reverse transcripted by a reverse transcriptase to synthesize cDNA. The synthesize cDNA was used as a template to perform GADPH, matrix metalloproteinase-2 and matrix metalloproteinase-9 PCR amplifications.
# [6] = test system: B16-F10 cell line; assay: Tumor metastasis in an animal model (lung metastasis induced by B16-F10); format: in vivo, C57BL/6 mice; details: mice, 50 mg/kg/day, 21 days
# Description: 12. Tumor Metastasis in an Animal Model (Itoh et al., 2005; Lee et al., 2005; Ouyang et al., 2005; Zhang et al., 2005)
# Experimental animal: C57BL/6, gray-brown fur
# C57BL/6 mice were injected with 2×10^5 cells/0.1 ml of a B16-F10 cell line by a tail intravenous injection. Then, on the next day the mice were injected with a physiological saline solution or 50 mg/kg drug, daily, for 3 weeks. The mice were sacrificed and their lungs were removed at the third week. The lungs were washed with a PBS buffer and fixed with Bouin's solution.
# [7] = test system: human umbilical vein endothelial cells; assay: Cell viability assay of human umbilical vein endothelial cells; format: cell-based; details: 24 hours
# Description: A medium in a culturing plate containing cells grown covering the whole bottom of the culturing plate, was removed. The cells were washed with 10 ml of PBS, and then suspended and mixed well with 10 ml of medium (a part of the cells need to be suspended with Trypsin-EDTA buffer). The numbers of the cells were calculated by a hemocytometer, and the cells were diluted to an appropriate cell concentration and added into the wells of a 24 well culturing plate by an amount of 500 μl/well. The 24 well culturing plates were placed in an incubator at 37° C. in a humidified atmosphere containing 5% CO2. After the cells were attached onto the bottom of the wells, the medium in each well was removed, and fresh mediums with different concentrations of a test drug were added into wells, respectively (if the cells were suspension cells, the fresh medium may be added into the wells, directly). Then, the 24 well culturing plates were placed in an incubator at 37° C. in a humidified atmosphere containing 5% CO2 for 24 hours. After that, an upper medium in each well was removed. The cells were washed with a PBS buffer twice, and then an MTT solution which was prepared with a medium was added to each well. After the 24 well culturing plates were placed in an incubator at 37° C. for reacting 4-6 hours, an upper medium in each well was removed, and 100 μl of DMSO was added to each well to solubilize the formazan precipitates. After that, an ELISA reader was used to determine the absorbance for each well at 600 nm.
# After human umbilical vein endothelial cells were treated with the different concentrations of L-Aspartic acid β-hydroxamate (CH) and different concentrations of L-Glutamic acid γ-hydroxamate (DH) for 24 hours, respectively, the cell viability assays were performed to the treated human umbilical vein endothelial cells and the angiogenesis conditions of the human umbilical vein endothelial cells were recorded. The results of the cell viability assays are shown as FIGS. 13 (A) and 14 (A). Photographs for the human umbilical vein endothelial cells treated with L-Aspartic acid β-hydroxamate (CH) and human umbilical vein endothelial cells treated with L-Glutamic acid γ-hydroxamate (DH) are shown as FIGS. 13 (B) and 14 (B), respectively.
# [8] = 0.4, 0.8, 1.2, and 1.6, 24 hours
# [9] = HT 1080 cells, 0.4, 0.8, 1.2 and 1.6 mM, 24 hours
# [10] = about 0.1-2 mM, stated as embodiment, 'and/or' MMP-9
compound,measurement,setting,value
"NC(CCC(=O)NO)C(=O)O [DH, L-Glutamic acid γ-hydroxamate]",cytotoxicity to HT 1080 cells,[1],no significant cytotoxicity
same,protein activity of matrix metalloproteinase-2 secreted out of and left in HT 1080 cells,[2]; [8],also decreased
same,inhibition rate to the activity of matrix metalloproteinase-2,[2]; HT 1080 cells treated 24 hours,greater than 50%
same,matrix metalloproteinase-2 inhibiting activity,[2]; [9],increased while the concentration thereof was increased
same,inhibition rate to the protein activity of metalloproteinase-2 of a cancer cell,[2]; [10],40-70%
same,protein activity of matrix metalloproteinase-9 secreted out of and left in HT 1080 cells,[3]; [8],also decreased
same,inhibition rate to the activity of matrix metalloproteinase-9,[3]; HT 1080 cells treated 24 hours,greater than 50%
same,matrix metalloproteinase-9 inhibiting activity,[3]; [9],increased while the concentration thereof was increased
same,inhibition rate to the protein activity of matrix metalloproteinase-9 of a cancer cell,"[3]; about 0.1-2 mM, stated as embodiment, 'and/or' MMP-2",40-70%
same,direct inhibition of enzyme activity of secreted matrix metalloproteinase-9,[4],no inhibition
same,gene expression (mRNA) of matrix metalloproteinase-2,"[5]; HT 1080 cells, 0.4, 0.8, 1.2, and 1.6, 6 hours, RT-PCR",decreased
same,inhibition rate to the gene transcriptional expression of metalloproteinase-2 of a cancer cell,[5]; [10],20-80%
same,lung metastasis and amount of metastasized pulmonary nodules,[6],significantly decreased
same,lung weight,[6],recovered to a level similar to that of the control group
same,"pathological symptoms (fur picking, weight loss, hind limb debility) due to cancer metastasis, compared to blank group",[6],decreased
same,survival till the end of the experiment,[6]; blank group 2 of 6 survived,six mice all survived
same,cytotoxicity to human umbilical vein endothelial cells,[7]; 0.25 mM,no cytotoxicity
same,viability of human umbilical vein endothelial cells,[7]; 0.75 mM,slight decreases
